# What was measured:
# [1] = biological target: human EP2 (Homo sapiens (Human), UniProt P43116); assay: In vitro binding to human EP2, [3H]-PGE2 displacement on membranes; conditions: HEK293 membranes, n = 1, read-out: hEP2, Ki
# Procedure: (§1) hEP1 and hEP4 membranes are prepared from recombinant HEK293 cells stably expressing human EP1 (Genbank accession number AY275470) or EP4 (Genbank accession number AY429109) receptors. hEP2 and hEP3 membranes are prepared from HEK293 cells transiently transfected with EP2 (Genbank accession number AY275471) or EP3 (isoform VI: Genbank accession number AY429108) receptor plasmids. Frozen cell pellets are homogenized in homogenization buffer using a Teflon/glass homogenizer. Membrane protein is aliquoted and quick frozen on dry ice prior to storage at −80° C. Homogenization buffer contained 10 mM Tris-HCl, pH 7.4, 250 mM sucrose, 1 mM EDTA, 0.3 mM indomethacin and plus Complete™, with EDTA, obtained from Roche Molecular Biochemicals (Catalog Number 1 697 498).
# (§2) Kd values for [3H]-PGE2 binding to each receptor are determined by saturation binding studies or homologous competition. Compounds are tested in a 96-well format using a three-fold dilution series to generate a 10-point curve. […] The membranes are harvested by filtration (TomTek harvester), washed 4 times with cold buffer (10 mM MES pH 6.0 with KOH, 10 mM MgCl2), dried in a 60° C. oven, and the radioactivity is quantified as counts per minute (CPM) using a TopCount detector. […]
# [2] = biological target: T1, human EP4 (Homo sapiens (Human), UniProt P35408); assay: In vitro human EP4 functional antagonist activity (PGE2-stimulated cAMP, HTRF); type: cell-based; conditions: read-out: IC50 measured at human EP4
# Source text: The raw data are converted to cAMP amount (pmole/well) using a cAMP standard curve generated for each experiment.
# Target sequence in this assay (P35408 whole entry): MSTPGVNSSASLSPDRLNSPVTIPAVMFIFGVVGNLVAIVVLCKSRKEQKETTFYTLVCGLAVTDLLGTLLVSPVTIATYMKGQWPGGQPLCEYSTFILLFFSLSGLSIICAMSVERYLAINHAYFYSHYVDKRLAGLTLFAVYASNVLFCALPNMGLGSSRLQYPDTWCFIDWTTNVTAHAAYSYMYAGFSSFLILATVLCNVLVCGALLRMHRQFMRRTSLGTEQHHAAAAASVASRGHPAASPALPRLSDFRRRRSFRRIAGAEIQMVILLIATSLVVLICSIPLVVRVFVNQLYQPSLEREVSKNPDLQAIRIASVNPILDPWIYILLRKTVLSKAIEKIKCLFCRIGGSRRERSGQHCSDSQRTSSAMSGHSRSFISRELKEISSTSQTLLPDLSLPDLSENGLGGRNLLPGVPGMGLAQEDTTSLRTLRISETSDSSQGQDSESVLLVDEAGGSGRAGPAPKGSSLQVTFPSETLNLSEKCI
# [3] = biological target: human EP3 (isoform VI) (Homo sapiens, UniProt P43115); assay: In vitro binding to human EP3, [3H]-PGE2 displacement on membranes; conditions: HEK293 membranes, n = 1, read-out: hEP3, Ki
# Procedure: as §1, with “-80°” for “−80°”, “CompleteTM,” for “Complete™,”, “498). Kd values for [3H]-PGE2 binding to each receptor are determined by saturation binding studies or homologous competition. Compounds are tested in a 96-well format using a three-fold dilution series to generate a 10-point curve. […] The membranes are harvested by filtration (TomTek harvester), washed 4 times with cold buffer (10 mM MES pH 6.0 with KOH, 10 mM MgCl2), dried in a 60° C. oven, and the radioactivity is quantified as counts per minute (CPM) using a TopCount detector. […]” for “498).”
# [4] = biological target: human EP1 (Homo sapiens (Human), UniProt P34995); assay: In vitro binding to human EP1, [3H]-PGE2 displacement on membranes; conditions: HEK293 membranes, n = 1, read-out: hEP1, Ki
# Procedure: as §1, §2
# [5] = biological target: rat EP4 (Rattus norvegicus (Rat), UniProt P43114); assay: In vitro rat EP4 functional antagonist activity (PGE2-stimulated cAMP, HTRF); type: cell-based; conditions: inhibition of PGE2-stimulated (EC80) cAMP production, HEK293 cells expressing rat EP4; read-out: IC50 measured at rat EP4
# Procedure: To test EP4 antagonist compounds in rEP4 cells, thaw the frozen cells and then resuspend cells in cAMP assay buffer. The cAMP buffer is made by HBSS without Phenol Red (Hyclone, SH30268) supplemented with 20 mM HEPES (Hyclone, SH30237), 0.1% BSA (Gibco, 15260) and 125 μM IBMX (Sigma, 15879). The cells are plated into 96-well half area flat-bottom polystyrene black plates (Costar 3694). […] The cAMP levels generated from the cells are quantified by a cAMP HTRF assay kit (Cisbio 62AM4PEC). The plates are read on an EnVision plate reader using HTRF optimized protocol (PerkinElmer). IC50's are calculated using Graphpad Prism (v. 4) nonlinear regression, sigmoidal dose response curve fitting.
# [6] = biological target: T1, human EP4; assay: In vitro antagonist activity in human whole blood (reversal of PGE2 inhibition of LPS-induced TNFα production); type: cell-based; conditions: read-out: IC50 measured at human EP4, human blood TNFα induction assay
# Target sequence in this assay (P35408 whole entry, looked up): as the sequence (P35408 whole entry) above
# Procedure: Blood is collected from normal volunteer donors into sodium heparin vacutainer tubes. Donors have not taken NSAIDs or celecoxib within 48 hours or glucocorticoids within two weeks of the donation. All tubes/donor are pooled into 50 mL Falcon conical centrifuge tubes and 98 μL/well is distributed into 96-well tissue culture plates (Falcon 3072). […] The plates are incubated for 20-24 hours at 37° C. in a 5% CO2 humidified atmosphere. The plates are centrifuged at 1800×g, 10 minutes at 22° C., in an Eppendorf 5810R centrifuge. Plasma is removed from the cell layer and is transferred to v-bottom polypropylene plates. TNFα levels in 2 μL plasma are quantified by a commercially available enzyme immunoassay (R&D Systems DY210), using Immulon 4 HBX plates (Thermo 3855) and 3,3′,5,5′ tetramethylbiphenyl-4,4′-diamine substrate (KPL 50-76-03). The plates are read at A450-A650 on a plate reader (Molecular Devices Versamax) using SOFTmaxPRO (v. 4.3.1) software. IC50s are calculated using Graphpad Prism (v. 4) nonlinear regression, sigmoidal dose response curve fitting. Results are expressed as the geometric mean±standard deviation; n=number of independent determinations.
# [7] = biological target: T1, human EP4; assay: In vitro binding to human EP4, [3H]-PGE2 displacement on membranes; conditions: HEK293 membranes, n = 7, read-out: hEP4, Ki
# Target sequence in this assay (P35408 whole entry, looked up): as the sequence (P35408 whole entry) above
# Procedure: Compounds are tested in a 96-well format using a three-fold dilution series to generate a 10-point curve. […] The binding reaction is performed in 200 μL MES buffer (10 mM MES pH 6.0 with KOH, 10 mM MgCl2 and 1 mM EDTA) using 0.5 mL polystyrene 96-well deep-well plates. […] The membranes are harvested by filtration (TomTek harvester), washed 4 times with cold buffer (10 mM MES pH 6.0 with KOH, 10 mM MgCl2), dried in a 60° C. oven, and the radioactivity is quantified as counts per minute (CPM) using a TopCount detector. […] Data are analyzed using a 4-parameter nonlinear logistic equation (ABase Equation 205) as shown: y=(A+((B−A)/(1+((C/x)^D)))) where, y=% specific inhibition, A=bottom of the curve; B=top of the curve; C=relative IC50 concentration causing 50% inhibition based on the range of the data from top to bottom; D=Hill, Slope=slope of the curve. Ki conversion from IC50 Values (Ki=IC50/(1+[L]/Kd) where [L] is the ligand concentration).
# human EP3 (isoform VI), sequence (P43115 whole entry, looked up, canonical isoform): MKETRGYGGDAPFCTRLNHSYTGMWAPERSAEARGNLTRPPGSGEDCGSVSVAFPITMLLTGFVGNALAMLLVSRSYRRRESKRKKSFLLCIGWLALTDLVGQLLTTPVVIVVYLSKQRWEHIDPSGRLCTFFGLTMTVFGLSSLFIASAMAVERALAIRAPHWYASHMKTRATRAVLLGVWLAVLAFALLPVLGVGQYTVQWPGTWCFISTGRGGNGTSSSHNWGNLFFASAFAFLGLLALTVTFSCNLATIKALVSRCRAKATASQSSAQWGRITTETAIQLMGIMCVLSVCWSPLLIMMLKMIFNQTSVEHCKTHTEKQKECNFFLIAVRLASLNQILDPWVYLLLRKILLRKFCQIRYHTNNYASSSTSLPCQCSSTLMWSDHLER
# rat EP4, sequence (P43114 whole entry): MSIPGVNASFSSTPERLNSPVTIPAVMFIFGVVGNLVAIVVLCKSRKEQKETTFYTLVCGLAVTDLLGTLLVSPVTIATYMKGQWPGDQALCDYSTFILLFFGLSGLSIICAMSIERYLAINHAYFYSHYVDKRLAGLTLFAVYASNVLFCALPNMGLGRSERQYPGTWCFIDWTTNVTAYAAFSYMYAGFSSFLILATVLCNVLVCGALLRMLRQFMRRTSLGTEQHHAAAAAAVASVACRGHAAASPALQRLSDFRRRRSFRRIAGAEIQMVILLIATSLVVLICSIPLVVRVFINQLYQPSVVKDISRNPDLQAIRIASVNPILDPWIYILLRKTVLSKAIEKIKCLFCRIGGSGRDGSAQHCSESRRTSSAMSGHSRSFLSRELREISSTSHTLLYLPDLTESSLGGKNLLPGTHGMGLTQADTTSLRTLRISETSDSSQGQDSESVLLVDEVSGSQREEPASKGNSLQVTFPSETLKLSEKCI
# human EP2, sequence (P43116 whole entry, canonical isoform): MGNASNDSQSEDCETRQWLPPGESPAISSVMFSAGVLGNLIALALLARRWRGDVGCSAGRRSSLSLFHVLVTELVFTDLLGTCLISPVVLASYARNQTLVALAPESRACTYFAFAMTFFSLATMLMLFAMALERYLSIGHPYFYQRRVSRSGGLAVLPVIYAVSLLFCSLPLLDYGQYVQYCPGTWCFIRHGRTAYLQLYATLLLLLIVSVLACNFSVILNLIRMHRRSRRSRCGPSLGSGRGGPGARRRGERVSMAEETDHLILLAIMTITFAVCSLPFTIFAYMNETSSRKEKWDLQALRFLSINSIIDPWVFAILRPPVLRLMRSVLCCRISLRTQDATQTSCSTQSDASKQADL
# human EP1, sequence (P34995 whole entry): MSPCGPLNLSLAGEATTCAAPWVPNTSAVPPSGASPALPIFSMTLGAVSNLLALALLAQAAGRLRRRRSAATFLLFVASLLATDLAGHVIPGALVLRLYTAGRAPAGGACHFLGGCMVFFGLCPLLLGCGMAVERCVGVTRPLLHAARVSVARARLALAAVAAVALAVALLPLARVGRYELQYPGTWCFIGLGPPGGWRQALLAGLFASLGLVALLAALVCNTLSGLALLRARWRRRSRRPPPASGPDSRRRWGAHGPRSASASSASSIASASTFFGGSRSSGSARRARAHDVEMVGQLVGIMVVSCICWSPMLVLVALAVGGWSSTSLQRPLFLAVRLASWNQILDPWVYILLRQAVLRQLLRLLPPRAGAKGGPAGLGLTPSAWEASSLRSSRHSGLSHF
compound,measurement,setting,value
"Cc1ccc(N2CCC(O)CC2)nc1C(=O)Nc1c(C)cc(C(=O)O)cc1C [Example 1, 4-[[6-(4-hydroxy-1-piperidyl)-3-methyl-pyridine-2-carbonyl]amino]-3,5-dimethyl-benzoic acid]",Ki,[1],> 18900 nM
same,IC50,[2],5.6 ± 2.8 nM
same,Ki,[3],> 14000 nM
same,Ki,[4],> 17500 nM
same,IC50,[5],12 nM
same,IC50,[6],123 ± 81 nM
same,Ki,[7],76 ± 47 nM
